# Measurements published in patent US4929618A, “Piperdine and piperazine derivatives, and antihistaminic pharmaceutical compositions containing the same” (priority 1988, dated 1990).
# Where two headings read alike, the source gives them in different places.
# What was measured:
# [1] = cited from earlier work
# histamine-induced death = assay: Protective effect on histamine-induced death; type: in vivo, guinea pig (Hartley-strain male); settings: oral 1 mg/kg, 2 h before 1.25 mg/kg i.v. histamine hydrochloride, guinea pig; for responders at 1 mg/kg: Cavia porcellus, read-out: Percent inhibition of histamine-induced death at a dose of 1 mg/kg, P.D. (%)
# Description: Hartley-strain male guinea pigs weighing 200 to 250 g were employed. After the test animals were starved for 5 hours, the test substance was orally administered at a dose of 1 mg/kg. 2 hours later after administration of the test substance, 1.25 mg/kg of histamine hydrochloride was intravenously administered to induce histamine shock. The potency of the test substance was judged by the percent inhibition of death induced by histamine.
# [2] = tested on: thiopental-induced anesthesia; type: in vivo, mouse (ddY-strain male); settings: 60 mg/10 ml/kg, control 1.00
# Description: ddY-strain male mice of 5 weeks of age were employed. Thiopental sodium was dissolved in physiological saline, and the test substance was prepared with a suspending agent of 0.5% Tween 80 (trade name, produced by Atlas Powder Co.; polyoxyethylene (20) sorbitan mono-oleate) and 1% gum tragacanth in the ratio of 1:2.5. The test animals were starved for 4 hours, 60 mg/10 ml/kg of the test substance was intraperitoneally administered (or orally administered), and then 20 minutes later (1 hour later in the case of oral administration), 30 mg/[…] of thiopental sodium was intravenously administered. The time immediately from intravenous administration to the righting reflex was measured, and this was defined as the anesthetic time. The formula for determining the anesthesia elongation is shown below. [formula]
# [3] = toxicity test in mice by oral administration; settings: in vivo, male mouse
# From the text: Also, the compounds of the present invention are extremely safe, and can be used continuously for a long term as pharmaceuticals, and were confirmed to have good tolerability in the toxicity test in mice by oral administration.
# [4] = i.p., 20 minutes before i.v. thiopental sodium
# [5] = p.o., 1 hour before i.v. thiopental sodium
Compound,responders at 1 mg/kg (histamine-induced death) [%],"The ratio of the elongation on the anesthetic time induced by thiopental [2, 4]","The ratio of the elongation on the anesthetic time induced by thiopental [2, 5]",further results
"COc1ccc(CCN2CCC(Nc3nc4ccccc4n3Cc3ccc(F)cc3)CC2)cc1 [Astemizole, reference compound]",100,–,–,sedative side-effect ([1]; reported for control drugs): little sedative side-effect
"CN1CCCC(n2nc(Cc3ccc(Cl)cc3)c3ccccc3c2=O)CC1 (centres unmarked) [Azelastine hydrochloric acid, reference compound]",100,–,–,–
"Clc1ccc(C(OC2CCN(CCSc3nc4ccccc4o3)CC2)c2ccccn2)cc1 (centres unmarked) [Compound A, 2-[2-[4-[(4-Chlorophenyl)-2-pyridylmethoxy]-1-piperidyl]-ethylthio]benzoxazole]",100,0.89,–,–
"Clc1ccc(C(OC2CCN(CCSc3nc4ccccc4o3)CC2)c2ccccn2)cc1.O=C(O)/C=C/C(=O)O (centres unmarked) [Compound B, 2-[2-[4-[(4-Chlorophenyl)-2-pyridylmethoxy]-1-piperidyl]-ethylthio]benzoxazole fumarate]",–,–,1.21,LD50 [3]: 1700 mg/kg
Clc1ccc(C(OC2CCN(CCCSc3nc4ccccc4o3)CC2)c2ccccn2)cc1 (centres unmarked) [Compound C],100,0.91,–,–
"Clc1ccc(C(OC2CCN(CCNc3nc4ccccc4o3)CC2)c2ccccn2)cc1.O=C(O)/C=C/C(=O)O (centres unmarked) [Compound D, 2-[2-[4-[(4-Chlorophenyl)-2-pyridylmethoxy]-1-piperidyl]-ethylamino]benzoxazole fumaric acid salt]",100,–,0.88,LD50 [3]: 740 mg/kg
"Clc1ccc(C(OC2CCN(CCSc3nc4ccccc4s3)CC2)c2ccccn2)cc1 (centres unmarked) [Compound E, 2-[2-[4-[(4-Chlorophenyl)-2-pyridylmethoxy]-1-piperidyl]-ethylthio]benzothiazole]",60,1.02,–,–
"Clc1ccc(C(OC2CCN(CCCSc3nc4ccccc4s3)CC2)c2ccccn2)cc1 (centres unmarked) [Compound F, 2-[3-[4-[(4-Chlorophenyl)-2-pyridylmethoxy]-1-piperidyl]-propylthio]benzothiazole]",80,1.73,–,–
"CCOc1ccc2nc(SCCCN3CCC(OC(c4ccc(Cl)cc4)c4ccccn4)CC3)sc2c1.O=C(O)/C=C/C(=O)O (centres unmarked) [Compound G, 2-[3-[4-[(4-chlorophenyl)-2-pyridylmethoxy]-1-piperidyl]propylthio]-6-ethoxybenzothiazole fumarate]",100,–,0.92,–
"Clc1ccc(C(OC2CCN(CCNc3nc4ccccc4s3)CC2)c2ccccn2)cc1 (centres unmarked) [Compound H, 2-[2-[4-[(4-Chlorophenyl)-2-pyridylmethoxy]-1-piperidyl]-ethylamino]benzothiazole]",100,1.05,–,–
"c1ccc(C(c2ccccc2)N2CCN(CCCSc3nc4ccccc4s3)CC2)cc1 [Compound I, 2-[3-[4-(diphenylmethyl)-1-piperadinyl]propylthio]benzothiazole dimaleate]",80,1.25,–,–
"CCOC(=O)CCCN1CCC(OC(c2ccc(Cl)cc2)c2ccccn2)CC1 (centres unmarked) [Compound J, Ethyl 4-[4-[(4-chlorophenyl)-2-pyridylmethoxy]-1-piperidyl]butanoate]",100,1.04,–,–
"CCOC(=O)CCCN1CCC(OC(c2ccc(Cl)cc2)c2ccccn2)CC1.Cc1ccc(S(=O)(=O)O)cc1 (centres unmarked) [Compound K, Ethyl 4-[4-[(4-chlorophenyl)-2-pyridylmethoxy]-1-piperidyl]butanoate p-toluenesulfonate]",–,–,1.19,LD50 [3]: 2200 mg/kg
"O=C(O)CCCN1CCC(OC(c2ccc(Cl)cc2)c2ccccn2)CC1 (centres unmarked) [Compound L, 4-[4-[(4-Chlorophenyl)-2-pyridylmethoxy]-1-piperidyl]-butanoic acid]",100,–,–,–
"NC(=O)CCCN1CCC(OC(c2ccc(Cl)cc2)c2ccccn2)CC1.O=C(O)/C=C\C(=O)O (centres unmarked) [Compound M, 4-[4-[(4-Chlorophenyl)-2-pyridylmethoxy]-1-piperidyl]-butanamide maleate]",100,–,0.75,–
"CCOC(=O)CCCN1CCC(OC(c2ccccc2)c2ccccc2)CC1.O=C(O)/C=C/C(=O)O [Compound N, Ethyl 4-(4-diphenylmethoxy-1-piperidyl)butanoate fumaric acid salt]",80,–,0.90,–
"CCOC(=O)C=CCN1CCC(OC(c2ccc(Cl)cc2)c2ccccn2)CC1 (centres unmarked) [Compound O, Ethyl 4-[4-[(4-chlorophenyl)-2-pyridylmethoxy]-1-piperidyl]-2-butenoate]",100,–,1.14,–
"CC(=O)CCCN1CCC(OC(c2ccc(Cl)cc2)c2ccccn2)CC1.O=C(O)/C=C/C(=O)O (centres unmarked) [Compound P, 5-[4-[(4-Chlorophenyl)-2-pyridylmethoxy]-1-piperidyl]-2-pentanone fumaric acid salt]",100,–,0.86,–
"O=C(CCCN1CCC(OC(c2ccc(Cl)cc2)c2ccccn2)CC1)c1ccccc1 (centres unmarked) [Compound Q, 4-[(4-Chlorophenyl)-2-pyridylmethoxy]-1-(3-benzoylpropyl)piperidine]",100,–,1.25,–
"c1ccc2c(c1)Sc1ccccc1N2CC1CN2CCC1CC2 (centres unmarked) [Meqiutazine, reference compound]",80,–,–,–
"O=c1[nH]c2ccccc2n1CCCN1CCN(C(c2ccccc2)c2ccccc2)CC1 [Oxatomide, reference compound]",100,–,4.56,–
"CC(C)(C)c1ccc(C(O)CCCN2CCC(C(O)(c3ccccc3)c3ccccc3)CC2)cc1 (centres unmarked) [Terfenadine, reference compound]",50,–,–,sedative side-effect ([1]; in vivo): little sedative side-effect
Chlorophenylamine maleate [reference compound],–,1.81,–,"Percent inhibition of histamine-induced death at a dose of 1 mg/kg, P.D. (%) (histamine-induced death): 100%"
